Laboratory results as given in ChEMBL document CHEMBL5360606, “Discovery of New Binders for DCAF1, an Emerging Ligase Target in the Targeted Protein Degradation Field” (ACS Med Chem Lett, 2023).

How the values were obtained:
[1] = target: T1, Polycomb protein EED (Homo sapiens, UniProt O75530); experiment: Binding affinity to his-tagged EED (76 to 441 residues) (unknown origin) expressed in Escherichia coli BL21 (DE3) using H3K27me3 as substrate assessed as dissociation constant
[2] = target: T1, Polycomb protein EED; experiment: Binding affinity to his-tagged EED (76 to 441 residues) (unknown origin) expressed in Escherichia coli BL21 (DE3) assessed as dissociation constant by SPR analysis

T1 sequence (O75530 whole entry, the tested form may be a part): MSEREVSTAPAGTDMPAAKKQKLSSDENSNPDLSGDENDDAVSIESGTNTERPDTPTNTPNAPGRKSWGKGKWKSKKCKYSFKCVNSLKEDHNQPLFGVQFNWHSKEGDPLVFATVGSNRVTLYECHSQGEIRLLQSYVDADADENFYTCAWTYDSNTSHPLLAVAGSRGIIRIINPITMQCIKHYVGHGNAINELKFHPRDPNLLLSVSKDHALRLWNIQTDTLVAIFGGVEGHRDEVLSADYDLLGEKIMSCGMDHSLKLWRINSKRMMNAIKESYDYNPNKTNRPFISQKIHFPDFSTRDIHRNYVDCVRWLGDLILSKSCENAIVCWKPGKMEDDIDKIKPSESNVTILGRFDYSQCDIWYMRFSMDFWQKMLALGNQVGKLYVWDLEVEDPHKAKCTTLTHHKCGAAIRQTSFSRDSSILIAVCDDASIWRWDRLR

Kd [1]	Structure (SMILES)	Kd [2]
25 µM	Clc1ccc(C2(C3=Cc4ccccc4C4=NCCN34)CC2)cc1	–
21 µM	CC(C)(Cc1ccccc1)C1=Cc2ccccc2C2=NCCN12	–
–	NC1=NCC(c2cccc(Oc3ccc(Cl)cc3)c2)C1 (centres undefined)	~360 µM
–	Fc1ccccc1C1=Cc2ccccc2C2=NCCN12	13.5 µM
